Measured values published in patent US20090196878A1, “Intestinal epithelial glucose sensor” (priority 2004, published 2009).

Assays:
SGLT1 expression [1] = assay: Dietary trial, SGLT1 mRNA by real-time PCR in wild-type mice; type: in vivo, mouse; details: proximal and mid intestinal regions, low carbohydrate diet plus sucralose 2 mM, 2 weeks, qPCR
Experimental: (§1) Male CD-1 and C57BL/6 mice, six weeks old, from Charles River Laboratories were used. The α-gustducin knock out mouse was described by Wong et al. (1996); the T1R3 knock out mouse was described by Damak et al. 2003).
(§2) High and low carbohydrate diets were resp. TestDiet® 5810 and TestDiet® 5787-9. For the sucralose test, the low carbohydrate diet was supplemented with sucralose (1,6-dichloro-1,6-dideoxy-beta-D-fructofuranosyl-4-chloro-4-deoxy-alpha-galactopyranoside) at 2 mM.
(§3) Animals were killed by concussion followed by cervical dislocation. The entire small intestine was removed and flushed with ice-cold 0.9% NaCl, opened longitudinally, rinsed in saline and mucous removed by blotting. The small intestine was then divided into proximal, mid and distal sections and the mucosa removed by scraping. Mucosal scrapings were frozen immediately in liquid nitrogen and stored at −80° C. until use. […]
(§4) Second, groups of wildtype and T1R3 and α-gustducin KO mice were placed on each of three iso-caloric diets a) low carbohydrate, b) high carbohydrate, and c) low carbohydrate+artificial sweetener (sucralose), for two weeks. After this time the mice were killed and the small intestines were removed, divided into proximal, mid and distal regions, and SGLT1 expression, at protein and mRNA levels, were measured in each.

SGLT1 expression [2] = assay: Dietary trial, SGLT1 protein by western blot of luminal membrane vesicles in wild-type mice; type: in vivo, mouse; details: low carbohydrate + sucralose diet, 2 weeks
Experimental: as §1, §2, §3, §4

SGLT1 expression [3] = assay: Dietary trial, SGLT1 expression in T1R3 knock-out mice; type: in vivo, mouse; details: T1R3 KO mice, low-carbohydrate + sucralose diet, 2 weeks
Experimental: as §1, §2, §3, §4

SGLT1 expression [4] = assay: Dietary trial, SGLT1 expression in α-gustducin knock-out mice; type: in vivo, mouse; details: α-gustducin KO mice, low-carbohydrate + sucralose diet, 2 weeks
Experimental: as §1, §2, §3, §4

[5] = reported, Roberts et al. 2000; cited from earlier work

With `OC[C@H]1O[C@H](O[C@]2(CCl)O[C@H](CCl)[C@@H](O)[C@@H]2O)[C@H](O)[C@@H](O)[C@H]1Cl` [sucralose, 1,6-dichloro-1,6-dideoxy-beta-D-fructofuranosyl-4-chloro-4-deoxy-alpha-galactopyranoside] the “increase in SGLT1 mRNA” value (SGLT1 expression [1]) was 30-70%, the SGLT1 protein expression (SGLT1 expression [2]) was “increased” and the “SGLT1 mRNA” value (SGLT1 expression [3]) was “no increase”. For the same compound, the SGLT1 protein (SGLT1 expression [3]) was “no increase”, the “SGLT1 mRNA” value (SGLT1 expression [4]) was “no increase” and the SGLT1 protein (SGLT1 expression [4]) was “no increase”. For the same compound, the “hydrolysis, transport and metabolism within the mammalian small intestine” value [5] was “non-hydrolysed, non-transported and non-metabolised”.
